Measured values: ChEMBL document CHEMBL3272354, “Antifilarial agents. 1,2-Cyclobutanediamines as analogues of diethylcarbamazine. Status of structure-activity relationships among diethylcarbamazine analogues” (1977)

What was measured:
Format in all cases: functional
[1] = system: Litomosoides carinii; experiment: Antifilarial activity against Litomosoides carinii infected in gerbil assessed as microfilaria count at 25, 50, 100 and 200 mg/kg administered on days 0, 1, 2 and 3 respectively measured on day 9 relative to control
[2] = system: Litomosoides carinii; experiment: Antifilarial activity against Litomosoides carinii infected in gerbil assessed as microfilaria count at 25, 50, 100 and 200 mg/kg administered on days 0, 1, 2 and 3 respectively measured on day 14 relative to control
[3] = system: Litomosoides carinii; experiment: Antifilarial activity against Litomosoides carinii infected in gerbil assessed as microfilaria count at 25, 50, 100 and 200 mg/kg administered on days 0, 1, 2 and 3 respectively measured on day 7 relative to control
[4] = system: Litomosoides carinii; experiment: Antifilarial activity against Litomosoides carinii infected in gerbil assessed as microfilaria count at 25, 50, 100 and 200 mg/kg administered on days 0, 1, 2 and 3 respectively measured on day 1 relative to control
[5] = system: Litomosoides carinii; experiment: Antifilarial activity against Litomosoides carinii infected in gerbil assessed as microfilaria count at 25, 50, 100 and 200 mg/kg administered on days 0, 1, 2 and 3 respectively measured on day 3 relative to control
[6] = system: Litomosoides carinii; experiment: In vivo antifilarial activity against Litomosoides carinii
[7] = system: Litomosoides carinii; experiment: Antifilarial activity against Litomosoides carinii infected in gerbil assessed as microfilaria count at 25, 50, 100 and 200 mg/kg administered on days 0, 1, 2 and 3 respectively measured on day 10 relative to control
[8] = system: Litomosoides carinii; experiment: Antifilarial activity against Litomosoides carinii infected in cotton rat assessed as reduction of microfilaria relative to control; design: scale not given: the % may be the effect or the level left
[9] = system: Litomosoides carinii; experiment: Antifilarial activity against Litomosoides carinii infected in gerbil assessed as microfilaria count at 25, 50, 100 and 200 mg/kg administered on days 0, 1, 2 and 3 respectively measured on day 11 relative to control
[10] = system: Litomosoides carinii; experiment: Antifilarial activity against Litomosoides carinii infected in natal multimammate rat assessed as reduction of microfilaria relative to control; design: scale not given: the % may be the effect or the level left

Row | SMILES | Activity [1] | Activity [2] | Activity [3] | Activity [4] | Activity [5] | Activity [6] | Activity [7] | Activity [8] | Activity [9] | Activity [10]
1 | CCOC(=O)N[C@H]1CC[C@@H]1NC.Cl | 99% | 151% | 122% | 101% | 113% | – | – | – | – | –
2 | CCN(CC)C(=O)N1CCCN(C)CC1 | – | – | – | – | – | 1% | – | – | – | –
3 | CCOC(=O)N[C@H]1CC[C@H]1N(C)C.O=C(O)/C=C\C(=O)O (relative stereo) | 154% | 199% | 169% | 127% | 59% | – | – | – | – | –
4 | CCOC(=O)N[C@H]1CC[C@@H]1N.Cl (relative stereo) | – | 153% | 148% | 107% | 163% | – | 182% | – | – | –
5 | CCOC(=O)N[C@H]1CC[C@@H]1NC(=O)OCC (relative stereo) | 240% | 208% | 201% | 189% | 236% | – | – | – | – | –
6 | CCOC(=O)N(C)[C@H]1CC[C@@H]1NC.O=C(O)/C=C\C(=O)O (relative stereo) | 95% | 165% | 150% | 150% | 160% | – | – | – | – | –
7 | CCOC(=O)N[C@H]1CC[C@@H]1N(C)C.O=C(O)/C=C\C(=O)O (relative stereo) | 133% | 213% | 158% | 96% | 190% | – | – | – | – | –
8 | CCN(CC)C(=O)N[C@H]1CC[C@@H]1N(C)C.O=C(O)CC(O)(CC(=O)O)C(=O)O (relative stereo) | 137% | 161% | 111% | 106% | 113% | – | – | – | – | –
9 | CCN(CC)C(=O)N(C)[C@H]1CC[C@@H]1N(C)C.O=C(O)/C=C\C(=O)O (relative stereo) | 159% | 100% | 174% | 185% | 99% | – | – | – | – | –
10 | CCN(CC)C(=O)N1CCN(C)CC1 [DIETHYLCARBAMAZINE] | 29% | – | – | 6% | 0.1% | – | – | 1% | 43% | –
11 | CN1CCN(C(=O)C2CCCCC2)CC1 [PEXANTEL] | – | – | – | – | – | – | – | – | – | 1%
